Laboratory results as given in patent US11730712B2, “Functionalized long-chain hydrocarbon mono- and di-carboxylic acids and derivatives thereof, and their use for the prevention or treatment of disease” (ESPERVITA THERAPEUTICS, INC., priority 2021, dated 2023).

System: liver fibrosis gene panel (770 genes)
Assay: Nanostring nCounter Fibrosis panel gene expression in liver of DEN-injected mice
Format: in vivo, mouse
Experimental: Nanostring Analysis. RNA was extracted from paired liver and tumor tissue from vehicle, Compound I-1 (100 mg/kg) and Compound I-32 (100 mg/kg) treated mice using an RNeasy kit (Qiagen, Calif., USA) as per manufacturer's protocol. All RNA samples passed the BioAnalyzer quality control test. The expression of target genes in liver and tumor were analyzed using the nCounter Fibrosis and Cancer Panel (NanoString Technologies, Inc., WA, USA), respectively according to manufacturer's protocol at the McMaster Genomics Facility. Technical and biological normalization against global geometric mean was performed in nSolver 4.0 software (NanoString Technologies). Technical normalization was performed in the nSolver software (version 4.0.70) by normalizing sample target raw counts to the geometric mean of positive control spike-ins. Biological normalization was performed by normalizing sample target raw counts to the geometric mean of selected housekeeping genes (Ppia, Nubp1, Nol7, Armh3, Rplp0, Cnot10, Pgk1, and Acad9). Pathway scores were calculated as the first principal component of the normalized expression values for all genes in each pathway and samples were compiled according to experimental groups to determine average pathway scores. Statistical significance was calculated between experimental groups using multiple t-tests and p-values were corrected for multiple comparisons using Benjamin-Hochberg false discovery rate.
Molecular analysis. To identify the pathways modulated in the liver and tumor tissue, nanostring analysis of fibrosis and cancer, pathways, respectively were completed in an n=8 mice treated with vehicle or Compound I-32 or Compound I-1 at 100 mg/kg.

CC(C)(CCCCc1cccc(CCCCC(C)(C)C(=O)O)c1)C(=O)O [Compound I-32, 6-[3-(5-carboxy-5-methylhexyl)-phenyl]-2,2-dimethylhexanoic acid]
number of genes downregulated (100 mg/kg, 4 weeks): 159 | number of genes upregulated (100 mg/kg, 4 weeks): 71 | number of genes with altered expression relative to vehicle controls (770 genes measured) (100 mg/kg, 4 weeks): 231 | Adh1 Log2FC (NM_007409, 100 mg/kg, vs vehicle): 0.536 | Aldh3a2 Log2FC (NM_007437, 100 mg/kg, vs vehicle): 0.869 | Prdx6 Log2FC (NM_007453, 100 mg/kg, vs vehicle): −0.595 | Apoa4 Log2FC (NM_007468, 100 mg/kg, vs vehicle): −3.4 | Atp6v1e1 Log2FC (NM_007510, 100 mg/kg, vs vehicle): 0.153 | Casp7 Log2FC (NM_007611, 100 mg/kg, vs vehicle): −0.31 | Cd36 Log2FC (NM_007643, 100 mg/kg, vs vehicle): 1.02 | Cdh2 Log2FC (NM_007664, 100 mg/kg, vs vehicle): −0.165 | Cebpa Log2FC (NM_007678, 100 mg/kg, vs vehicle): −0.413 | Cfi Log2FC (NM_007686, 100 mg/kg, vs vehicle): −0.395 | Chil1 Log2FC (NM_007695, 100 mg/kg, vs vehicle): 2.58 | Col1a2 Log2FC (NM_007743, 100 mg/kg, vs vehicle): −0.588 | Cox6a1 Log2FC (NM_007748, 100 mg/kg, vs vehicle): 0.336 | Cox7c Log2FC (NM_007749, 100 mg/kg, vs vehicle): 0.459 | Crp Log2FC (NM_007768, 100 mg/kg, vs vehicle): −0.857 | Ctsb Log2FC (NM_007798, 100 mg/kg, vs vehicle): −0.216 | Cybb Log2FC (NM_007807, 100 mg/kg, vs vehicle): −0.644 | Cyp2c29 Log2FC (NM_007815, 100 mg/kg, vs vehicle): −0.646 | Cyp7a1 Log2FC (NM_007824, 100 mg/kg, vs vehicle): −1.38 | Diaph1 Log2FC (NM_007858, 100 mg/kg, vs vehicle): −0.265 | Ephx2 Log2FC (NM_007940, 100 mg/kg, vs vehicle): 0.562 | F5 Log2FC (NM_007976, 100 mg/kg, vs vehicle): −0.29 | Fas Log2FC (NM_007987, 100 mg/kg, vs vehicle): 0.226 | Fasn Log2FC (NM_007988, 100 mg/kg, vs vehicle): 1.09 | Slc37a4 Log2FC (NM_008063, 100 mg/kg, vs vehicle): −0.843 | Gas1 Log2FC (NM_008086, 100 mg/kg, vs vehicle): −0.696 | Gpc4 Log2FC (NM_008150, 100 mg/kg, vs vehicle): −0.381 | Hadh Log2FC (NM_008212, 100 mg/kg, vs vehicle): 0.258 | Hsd11b1 Log2FC (NM_008288, 100 mg/kg, vs vehicle): −1.23 | Hsd17b4 Log2FC (NM_008292, 100 mg/kg, vs vehicle): 0.446 | Irf8 Log2FC (NM_008320, 100 mg/kg, vs vehicle): −0.357 | Il10ra Log2FC (NM_008348, 100 mg/kg, vs vehicle): −0.578 | Itch Log2FC (NM_008395, 100 mg/kg, vs vehicle): −0.295 | Kikb1 Log2FC (NM_008455, 100 mg/kg, vs vehicle): −0.217 | Lpl Log2FC (NM_008509, 100 mg/kg, vs vehicle): 1.8 | Lrp1 Log2FC (NM_008512, 100 mg/kg, vs vehicle): −0.376 | Cd180 Log2FC (NM_008533, 100 mg/kg, vs vehicle): −0.606 | Masp1 Log2FC (NM_008555, 100 mg/kg, vs vehicle): −0.26 | Anapc1 Log2FC (NM_008569, 100 mg/kg, vs vehicle): −0.316 | Mmp12 Log2FC (NM_008605, 100 mg/kg, vs vehicle): −2.05 | Mmp14 Log2FC (NM_008608, 100 mg/kg, vs vehicle): −0.465 | Nedd8 Log2FC (NM_008683, 100 mg/kg, vs vehicle): 0.0875 | Pcx Log2FC (NM_008797, 100 mg/kg, vs vehicle): −0.521 | Plcb3 Log2FC (NM_008874, 100 mg/kg, vs vehicle): −0.297 | Plg Log2FC (NM_008877, 100 mg/kg, vs vehicle): −0.296 | Ppm1a Log2FC (NM_008910, 100 mg/kg, vs vehicle): 0.136 | Map2k1 Log2FC (NM_008927, 100 mg/kg, vs vehicle): −0.177 | Saa1/2 Log2FC (NM_009117, 100 mg/kg, vs vehicle): −1.96 | Scd1 Log2FC (NM_009127, 100 mg/kg, vs vehicle): 0.602 | Scd2 Log2FC (NM_009128, 100 mg/kg, vs vehicle): 0.949 | Sorbs1 Log2FC (NM_009166, 100 mg/kg, vs vehicle): −0.302 | Sem1 Log2FC (NM_009169, 100 mg/kg, vs vehicle): 0.298 | Ssr4 Log2FC (NM_009279, 100 mg/kg, vs vehicle): −0.228 | Tgfbr1 Log2FC (NM_009370, 100 mg/kg, vs vehicle): −0.309 | Traf2 Log2FC (NM_009422, 100 mg/kg, vs vehicle): −0.346 | Tnfsf10 Log2FC (NM_009425, 100 mg/kg, vs vehicle): −0.692 | Axl Log2FC (NM_009465, 100 mg/kg, vs vehicle): −0.418 | Ap1g1 Log2FC (NM_009677, 100 mg/kg, vs vehicle): −0.189 | Apoa1 Log2FC (NM_009692, 100 mg/kg, vs vehicle): −0.481 | Apob Log2FC (NM_009693, 100 mg/kg, vs vehicle): −0.227 | Bcl2l1 Log2FC (NM_009743, 100 mg/kg, vs vehicle): −0.248 | Serping1 Log2FC (NM_009776, 100 mg/kg, vs vehicle): −0.66 | C3ar1 Log2FC (NM_009779, 100 mg/kg, vs vehicle): −0.825 | Calm1 Log2FC (NM_009790, 100 mg/kg, vs vehicle): −0.327 | Casp3 Log2FC (NM_009810, 100 mg/kg, vs vehicle): −0.237 | Serpinh1 Log2FC (NM_009825, 100 mg/kg, vs vehicle): −0.531 | Cdk4 Log2FC (NM_009870, 100 mg/kg, vs vehicle): 0.181 | Cfh Log2FC (NM_009888, 100 mg/kg, vs vehicle): −1.41 | Col3a1 Log2FC (NM_009930, 100 mg/kg, vs vehicle): −0.679 | Csnk2b Log2FC (NM_009975, 100 mg/kg, vs vehicle): 0.0913 | Ctsd Log2FC (NM_009983, 100 mg/kg, vs vehicle): 0.331 | Cyp4a10/31/32 Log2FC (NM_010011, 100 mg/kg, vs vehicle): 2.88 | Fcer1g Log2FC (NM_010185, 100 mg/kg, vs vehicle): −0.427 | Fn1 Log2FC (NM_010233, 100 mg/kg, vs vehicle): −0.584 | Got2 Log2FC (NM_010325, 100 mg/kg, vs vehicle): 0.156 | H2-Aa Log2FC (NM_010378, 100 mg/kg, vs vehicle): −0.4 | H2-D1 Log2FC (NM_010380, 100 mg/kg, vs vehicle): −0.175 | H2-T23 Log2FC (NM_010398, 100 mg/kg, vs vehicle): −0.224 | Hck Log2FC (NM_010407, 100 mg/kg, vs vehicle): −0.667 | Hif1a Log2FC (NM_010431, 100 mg/kg, vs vehicle): 0.283 | Hmox1 Log2FC (NM_010442, 100 mg/kg, vs vehicle): −0.484 | Hsp90aa1 Log2FC (NM_010480, 100 mg/kg, vs vehicle): 0.361 | Icam1 Log2FC (NM_010493, 100 mg/kg, vs vehicle): −0.382 | Ikbkb Log2FC (NM_010546, 100 mg/kg, vs vehicle): −0.526 | II6st Log2FC (NM_010560, 100 mg/kg, vs vehicle): −0.296 | Ilk Log2FC (NM_010562, 100 mg/kg, vs vehicle): −0.109 | Itgb1 Log2FC (NM_010578, 100 mg/kg, vs vehicle): 0.143 | Fabp5 Log2FC (NM_010634, 100 mg/kg, vs vehicle): 1.44 | Lepr Log2FC (NM_010704, 100 mg/kg, vs vehicle): 0.604 | Psmb8 Log2FC (NM_010724, 100 mg/kg, vs vehicle): −0.801 | Lyn Log2FC (NM_010747, 100 mg/kg, vs vehicle): −0.295 | Marco Log2FC (NM_010766, 100 mg/kg, vs vehicle): −1.54 | P4hb Log2FC (NM_011032, 100 mg/kg, vs vehicle): −0.765 | Pck1 Log2FC (NM_011044, 100 mg/kg, vs vehicle): −1.99 | Pitp Log2FC (NM_011125, 100 mg/kg, vs vehicle): 1.37 | Pparg Log2FC (NM_011146, 100 mg/kg, vs vehicle): −0.592 | Prkdc Log2FC (NM_011159, 100 mg/kg, vs vehicle): −0.525 | Pros1 Log2FC (NM_011173, 100 mg/kg, vs vehicle): −0.208 | Lgmn Log2FC (NM_011175, 100 mg/kg, vs vehicle): −0.601 | Ptprc Log2FC (NM_011210, 100 mg/kg, vs vehicle): −0.47 | S100a4 Log2FC (NM_011311, 100 mg/kg, vs vehicle): −0.79 | Serpinf1 Log2FC (NM_011340, 100 mg/kg, vs vehicle): −0.208 | Sod1 Log2FC (NM_011434, 100 mg/kg, vs vehicle): 0.284 | Srebf1 Log2FC (NM_011480, 100 mg/kg, vs vehicle): −0.634 | Thbs2 Log2FC (NM_011581, 100 mg/kg, vs vehicle): −1.01 | Timp2 Log2FC (NM_011594, 100 mg/kg, vs vehicle): −0.451 | Tjp2 Log2FC (NM_011597, 100 mg/kg, vs vehicle): 0.199 | Tln1 Log2FC (NM_011602, 100 mg/kg, vs vehicle): −0.355 | Vegfb Log2FC (NM_011697, 100 mg/kg, vs vehicle): 0.521 | Adh4 Log2FC (NM_011996, 100 mg/kg, vs vehicle): −0.855 | Bcap31 Log2FC (NM_012060, 100 mg/kg, vs vehicle): −0.145 | C9 Log2FC (NM_013485, 100 mg/kg, vs vehicle): −1.25
